The text below walks through data of ChEMBL document CHEMBL1201862, “PubChem BioAssay data set” (2004).

The source made the active and inactive calls.

In experiment [1] the target is T1, Zinc finger protein mex-5 (Caenorhabditis elegans, UniProt Q9XUB2).
T1 sequence (Q9XUB2 whole entry): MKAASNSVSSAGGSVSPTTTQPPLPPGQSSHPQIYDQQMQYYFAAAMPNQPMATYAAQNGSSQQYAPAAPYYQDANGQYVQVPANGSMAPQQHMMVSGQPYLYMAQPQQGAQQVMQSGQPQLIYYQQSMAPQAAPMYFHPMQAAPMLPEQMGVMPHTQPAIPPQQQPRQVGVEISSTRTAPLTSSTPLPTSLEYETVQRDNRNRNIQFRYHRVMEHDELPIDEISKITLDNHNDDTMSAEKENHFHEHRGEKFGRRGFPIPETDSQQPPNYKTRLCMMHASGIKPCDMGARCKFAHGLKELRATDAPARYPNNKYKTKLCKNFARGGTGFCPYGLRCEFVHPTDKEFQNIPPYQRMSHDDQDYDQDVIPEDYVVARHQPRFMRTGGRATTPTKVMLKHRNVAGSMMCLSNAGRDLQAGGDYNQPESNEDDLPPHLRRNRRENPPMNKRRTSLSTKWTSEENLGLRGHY
The experiment in a line: MEX-5/TCR-2 RNA interaction inhibitors, dose response, biochemical, C. elegans, fluorescence polarization (AID 1960).

Experiment [2] addresses Sphingosine 1-phosphate receptor 1 (Homo sapiens, UniProt P21453). In words: Fluorescence-based counterscreen assay for S1P4 agonists: Cell-based dose response high throughput screening assay to identify agonists of the Sphingosine 1-Phosphate Receptor 1 (S1P1). [Related pubchem assays (depositor defined):AID1509, AID1523, AID1801, AID463107, AID463118, AID463119, AID463122, AID463123, AID463129, AID463225, AID504400, AID504460]. The experiment is classed as functional.

For experiment [3], the target named is T2, Sphingosine 1-phosphate receptor 4 (Homo sapiens, UniProt O95977).
T2 sequence (O95977 whole entry): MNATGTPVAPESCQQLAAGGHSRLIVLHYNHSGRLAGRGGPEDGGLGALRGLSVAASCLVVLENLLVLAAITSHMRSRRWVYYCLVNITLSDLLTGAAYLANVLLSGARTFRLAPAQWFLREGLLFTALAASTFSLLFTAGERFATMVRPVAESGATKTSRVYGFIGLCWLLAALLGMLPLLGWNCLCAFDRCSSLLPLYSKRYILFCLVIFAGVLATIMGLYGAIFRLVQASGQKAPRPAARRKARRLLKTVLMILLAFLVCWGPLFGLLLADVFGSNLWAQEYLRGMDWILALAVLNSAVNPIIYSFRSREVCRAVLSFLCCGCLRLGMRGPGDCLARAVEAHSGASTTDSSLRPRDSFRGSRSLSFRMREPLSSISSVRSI
In words: Fluorescence dose response cell-based high throughput screening assay for agonists of the Sphingosine 1-Phosphate Receptor 4 (S1P4). [Related pubchem assays: 1509 (Primary screen.), 1523 (Confirmation screen in triplicates.)]. The experiment is classed as functional.

Experiment [4] has as its target T3, RNA-binding protein pos-1 (Caenorhabditis elegans, UniProt G5EF15).
T3 sequence (G5EF15 whole entry): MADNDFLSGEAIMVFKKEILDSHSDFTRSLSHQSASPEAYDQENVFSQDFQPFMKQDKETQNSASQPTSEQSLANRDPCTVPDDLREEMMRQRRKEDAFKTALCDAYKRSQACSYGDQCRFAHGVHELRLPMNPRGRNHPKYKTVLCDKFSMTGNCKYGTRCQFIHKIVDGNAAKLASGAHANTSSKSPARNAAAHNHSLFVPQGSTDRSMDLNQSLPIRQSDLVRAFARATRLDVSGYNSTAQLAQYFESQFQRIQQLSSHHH
In words: inhibitors of POS-1/mex-3 RNA binding, dose response, biochemical, fluorescence polarization (AID 1964).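 Also: purified POS-1 fused to maltose binding protein made in E. coli; potency of compounds blocking POS-1 binding to fluorescent RNA.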

Experiment [5] concerns the target Peroxisome proliferator-activated receptor gamma/Nuclear receptor coactivator 3 (Homo sapiens, UniProt P37231). In words: TR-FRET dose response biochemical High Throughput Screening assay for agonists of the steroid receptor coactivator 3 (SRC-3) recruitment by the peroxisome proliferator-activated receptor gamma (PPAR gamma): non-selective agonists. [Related pubchem assays: 1301 (Confirmation screen.), 1048 (Primary screen.)]. It counts as functional.

For experiment [6], the target named is Peroxisome proliferator-activated receptor gamma/Nuclear receptor coactivator 1 (Homo sapiens, UniProt P37231). In words: TR-FRET dose response biochemical High Throughput Screening assay for agonists of the steroid receptor coactivator 1 (SRC-1) recruitment by the peroxisome proliferator-activated receptor gamma (PPAR gamma): non-selective agonists. [Related pubchem assays (depositor defined):AID1300, AID1808, AID504735, AID631]. The experiment is classed as protein assay.

The next experiment deals with Troponin, cardiac muscle (Homo sapiens, UniProt P19429+P45379+P63316). In words: Fluorescence-based biochemical high throughput dose response assay for activators of the calcium sensitivity of cardiac Regulated Thin Filaments (RTF). [Related pubchem assays (depositor defined):AID493008, AID493018, AID504382, AID504383]. The experiment is classed as protein-complex assay.

Experiment [7] deals with Peroxisome proliferator-activated receptor gamma/Nuclear receptor coactivator 2 (Homo sapiens, UniProt P37231). The experiment in a line: TR-FRET dose response biochemical High Throughput Screening assay for agonists of the steroid receptor coactivator 2 (SRC-2) recruitment by the peroxisome proliferator-activated receptor gamma (PPAR gamma): non-selective agonists. [Related pubchem assays: 1297, 1032 ]. The experiment is classed as functional.

Experiment [8] concerns the target Tyrosine-protein phosphatase non-receptor type 7 (Homo sapiens, UniProt P35236). The experiment is classed as functional.
Experiment [9] concerns the target T4, Tyrosine-protein phosphatase non-receptor type 22 (Homo sapiens, UniProt Q9Y2R2). The experiment is classed as functional.
The target in experiment [10] is T4, Tyrosine-protein phosphatase non-receptor type 22. It counts as functional. This is another data set of the same source.
Experiment [11] has as its target T5, High affinity choline transporter 1 (Homo sapiens, UniProt Q9GZV3).
T5 sequence (Q9GZV3 whole entry): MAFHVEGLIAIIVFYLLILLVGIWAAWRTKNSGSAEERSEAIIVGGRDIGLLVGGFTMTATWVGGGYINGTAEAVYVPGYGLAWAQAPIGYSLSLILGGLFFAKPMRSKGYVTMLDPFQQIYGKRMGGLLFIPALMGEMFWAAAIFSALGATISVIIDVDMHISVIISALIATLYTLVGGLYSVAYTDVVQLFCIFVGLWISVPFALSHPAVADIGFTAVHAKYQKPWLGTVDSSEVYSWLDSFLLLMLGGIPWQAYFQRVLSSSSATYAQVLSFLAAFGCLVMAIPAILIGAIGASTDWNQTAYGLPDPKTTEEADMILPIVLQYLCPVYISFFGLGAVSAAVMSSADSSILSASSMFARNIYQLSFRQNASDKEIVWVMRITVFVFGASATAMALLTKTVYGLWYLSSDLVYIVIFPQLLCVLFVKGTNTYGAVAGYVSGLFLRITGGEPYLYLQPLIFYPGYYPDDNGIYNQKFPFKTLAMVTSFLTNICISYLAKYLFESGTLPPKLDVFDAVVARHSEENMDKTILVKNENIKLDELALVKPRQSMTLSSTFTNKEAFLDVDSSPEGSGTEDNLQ
The experiment in a line: CHT inhibitors, dose response, cell-based, 5-point CRC, membrane potential dye (AID 504840). It counts as functional.

Experiment [12] addresses Protein-arginine deiminase type-4 (Homo sapiens, UniProt Q9UM07). The experiment in a line: human PAD4 inhibitor potency, dose response, biochemical, fluorescence readout (AID 492970).
The target in experiment [13] is T6, Replicative DNA helicase DnaB (Mycobacterium tuberculosis, UniProt P9WMR3).
T6 sequence (P9WMR3 whole entry): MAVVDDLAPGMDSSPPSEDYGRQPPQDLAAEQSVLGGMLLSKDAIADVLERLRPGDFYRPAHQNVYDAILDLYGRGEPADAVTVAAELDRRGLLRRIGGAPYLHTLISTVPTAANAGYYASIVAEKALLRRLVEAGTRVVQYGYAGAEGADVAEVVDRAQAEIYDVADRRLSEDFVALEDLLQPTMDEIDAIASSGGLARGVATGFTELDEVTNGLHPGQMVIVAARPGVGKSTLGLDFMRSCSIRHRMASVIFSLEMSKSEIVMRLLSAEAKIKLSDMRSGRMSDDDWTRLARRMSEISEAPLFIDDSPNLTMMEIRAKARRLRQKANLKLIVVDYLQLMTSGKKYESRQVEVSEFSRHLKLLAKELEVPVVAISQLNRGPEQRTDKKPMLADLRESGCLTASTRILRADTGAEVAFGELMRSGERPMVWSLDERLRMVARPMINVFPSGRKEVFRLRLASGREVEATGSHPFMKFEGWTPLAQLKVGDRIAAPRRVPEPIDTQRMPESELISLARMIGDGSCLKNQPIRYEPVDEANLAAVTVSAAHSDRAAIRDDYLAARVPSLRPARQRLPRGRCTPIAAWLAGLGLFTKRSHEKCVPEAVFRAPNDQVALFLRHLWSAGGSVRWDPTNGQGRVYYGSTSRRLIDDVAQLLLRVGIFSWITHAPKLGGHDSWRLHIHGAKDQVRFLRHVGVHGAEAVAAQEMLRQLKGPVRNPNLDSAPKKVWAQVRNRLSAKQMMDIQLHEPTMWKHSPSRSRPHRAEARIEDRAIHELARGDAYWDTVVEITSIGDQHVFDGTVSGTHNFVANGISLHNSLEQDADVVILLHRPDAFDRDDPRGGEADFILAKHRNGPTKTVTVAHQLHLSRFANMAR
The experiment in a line: DnaB intein splicing inhibitors, dose response, biochemical, cell-free fluorescence (AID 449749). The experiment is classed as functional.

The next experiment has as its target T7, Protein RecA (Mycobacterium tuberculosis, UniProt P9WHJ3).
T7 sequence (P9WHJ3 whole entry): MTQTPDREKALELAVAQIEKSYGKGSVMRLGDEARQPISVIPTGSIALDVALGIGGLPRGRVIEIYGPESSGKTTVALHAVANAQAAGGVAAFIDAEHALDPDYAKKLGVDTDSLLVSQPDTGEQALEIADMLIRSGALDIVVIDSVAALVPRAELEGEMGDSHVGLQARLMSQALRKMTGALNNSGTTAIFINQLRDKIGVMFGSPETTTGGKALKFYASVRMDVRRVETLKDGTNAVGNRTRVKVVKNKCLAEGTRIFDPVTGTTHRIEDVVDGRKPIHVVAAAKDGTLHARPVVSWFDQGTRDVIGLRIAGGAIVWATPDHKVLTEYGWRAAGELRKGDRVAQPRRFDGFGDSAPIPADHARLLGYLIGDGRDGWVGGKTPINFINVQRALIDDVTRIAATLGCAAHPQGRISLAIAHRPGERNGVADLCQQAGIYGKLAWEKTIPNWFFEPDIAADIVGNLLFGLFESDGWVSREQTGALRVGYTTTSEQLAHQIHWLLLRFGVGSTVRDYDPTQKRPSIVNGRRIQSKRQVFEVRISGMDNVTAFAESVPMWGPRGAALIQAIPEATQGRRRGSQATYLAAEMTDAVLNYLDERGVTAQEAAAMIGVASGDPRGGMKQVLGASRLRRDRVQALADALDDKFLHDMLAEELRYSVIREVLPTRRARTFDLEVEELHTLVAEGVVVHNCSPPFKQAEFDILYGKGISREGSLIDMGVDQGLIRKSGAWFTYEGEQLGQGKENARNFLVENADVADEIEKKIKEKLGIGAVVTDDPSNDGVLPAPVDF
In words: Fluorescence Cell-Free Homogeneous Dose Retest to Identify Inhibitors of RecA-Intein Splicing Activity. [Related pubchem assays (depositor defined):AID2097, AID2223, AID489010, AID492950]. It counts as functional.

For the compound `CCOC(=O)c1c(-n2c(C)cc(C=C3C(=O)NC(=O)NC3=O)c2C)sc2c1CCCC2`, the EC50 was > 300 µM (inconclusive) in experiment [1], > 49.8 µM (inactive) in experiment [2], > 16.6 µM (not active) in [3] and > 300 µM (inconclusive) in [4].
For `CNC(=S)N1N=C(c2ccc(Br)cc2)CC1c1ccc(N(C)C)cc1` (stereo not given), the EC50 was > 79.4 µM (not active) in [5]; 11.6 µM (inactive) in experiment [6]; 40 µM (inactive) at Troponin, cardiac muscle; 14 µM (not active) in [7].
Take `Cc1occc1C(=O)NNS(=O)(=O)c1ccc(Cl)cc1`: the IC50 is > 79.4 µM (inactive) in [8], > 79.4 µM (inactive) in experiment [9], > 79.4 µM (inactive) in [10] and 13.5 µM (active) in [11].
Turning to `COC(=O)c1nc(O)c2ccccc2c1O`, in experiment [12], the IC50 was 42 µM (inactive). For the same compound, in experiment [13], the AC50 was 5.62 µM (active). For the same compound, the EC50 at Protein RecA was 3.57 µM (active).
